A short description of test [1]: Antioxidant behavior of C60 fullerene compared with vitamin C (reported). To be noted: 60 atoms for C60 fullerene versus six for vitamin C. The source says: Antioxidant behavior has been reported in C60 fullerene as being 172 times that of vitamin C or ascorbic acid.
The reported factor of 172 times greater than vitamin C can be partially explained by C60 fullerene having 60 carbons over which electron delocalization can proceed versus only six atoms of a mixture of half and half carbon and oxygen for vitamin C. If it were just numbers of atoms over which electron delocalization proceeds in its effectiveness in stabilizing unpaired electrons arising from ROS, one would expect that the potency of C60 fullerene would be only ten times that of vitamin C. Phenolics involve only seven atoms for stabilizing unpaired electrons of six carbons from the benzene ring plus the phenolic oxygen atom and thus C60 fullerene would then be expected to be a bit less than ten times that of phenolic antioxidants.
The reported 172 factor superiority of C60 fullerene in antioxidant behavior over vitamin C or ascorbic acid cannot be accounted for on the basis of individual atoms involved in the delocalization network alone. […] So, there must be something exceptional about the electron delocalization involving 3D fullerene concentric shells over 2D ascorbic acid or phenolics. There are several explanations for the superiority of 3D fullerene systems especially of the fullerene CNO systems: […]

Test [2] deals with rat. To be noted: cited from earlier work.

Structures are written as SMILES.

As to `c12c3c4c5c1c1c6c7c2c2c8c3c3c9c4c4c%10c5c5c1c1c6c6c%11c7c2c2c7c8c3c3c8c9c4c4c9c%10c5c5c1c1c6c6c%11c2c2c7c3c3c8c4c4c9c5c1c1c6c2c3c41` [C60 fullerene], the “superiority in antioxidant behavior over ascorbic acid, taking into account the number of atoms in the electron delocalization network” value in test [1] was found to be 17.2 factor. Besides, the life expectancy entry in test [2] is listed as “nearly doubling of life expectancy”.
